Experimental data taken from ChEMBL document CHEMBL3751666, “Efficiently functionalized oxacalix[4]arenes: Synthesis, characterization and exploration of their biological profile as novel HDAC inhibitors” (2016).
Converted amounts (≈) assume the structure as drawn. Structures can show the parent of a compound that is named as a salt.

Columns and labels:
Type in all cases: functional
[1] = test system: Candida albicans; assay: Antifungal activity against Candida albicans by broth micro-dilution method
[2] = test system: Aspergillus niger; assay: Antifungal activity against Aspergillus niger by broth micro-dilution method
[3] = test system: Aspergillus clavatus; assay: Antifungal activity against Aspergillus clavatus by broth micro-dilution method
[4] = test system: Escherichia coli; assay: Antibacterial activity against Escherichia coli by broth micro-dilution method
[5] = test system: Pseudomonas aeruginosa; assay: Antibacterial activity against Pseudomonas aeruginosa by broth micro-dilution method
[6] = test system: Staphylococcus aureus; assay: Antibacterial activity against Staphylococcus aureus by broth micro-dilution method
[7] = test system: Streptococcus pyogenes; assay: Antibacterial activity against Streptococcus pyogenes by broth micro-dilution method
[8] = test system: HeLa; assay: Cytotoxicity against human HeLa cells; conditions: for CC50: read-out: LC50 (the source's name)

Compound	MIC [1] [µg/mL]	MIC [2] [µg/mL]	MIC [3] [µg/mL]	MIC [4] [µg/mL]	MIC [5] [µg/mL]	MIC [6] [µg/mL]	MIC [7] [µg/mL]	GI50 [8] [µM]	TGI [8] [µM]	CC50 [8] [µM]
COC1=CC(=O)C[C@@H](C)[C@]12Oc1c(Cl)c(OC)cc(OC)c1C2=O [GRISEOFULVIN]	50 (≈ 142 µM)	10 (≈ 28.3 µM)	10 (≈ 28.3 µM)	–	–	–	–	–	–	–
O=C(COc1cc2cc(c1)Oc1cc(c([N+](=O)[O-])cc1[N+](=O)[O-])Oc1cc(OCC(=O)Nc3cccc4cccnc34)cc(c1)Oc1cc(c([N+](=O)[O-])cc1[N+](=O)[O-])O2)Nc1cccc2cccnc12	50 (≈ 52.7 µM)	50 (≈ 52.7 µM)	50 (≈ 52.7 µM)	50 (≈ 52.7 µM)	3.12 (≈ 3.29 µM)	50 (≈ 52.7 µM)	50 (≈ 52.7 µM)	28.8	59.2	> 100
O=[N+]([O-])c1cc([N+](=O)[O-])c2cc1Oc1cc(cc(OS(=O)(=O)c3cccc4ccccc34)c1)Oc1cc(c([N+](=O)[O-])cc1[N+](=O)[O-])Oc1cc(cc(OS(=O)(=O)c3cccc4ccccc34)c1)O2	12.5 (≈ 13 µM)	50 (≈ 52 µM)	50 (≈ 52 µM)	3.12 (≈ 3.25 µM)	3.12 (≈ 3.25 µM)	6.25 (≈ 6.5 µM)	12.5 (≈ 13 µM)	31.3	61.3	> 100
NYSTATIN	10	10	10	–	–	–	–	–	–	–
O=C(COc1cc2cc(c1)Oc1cc(c([N+](=O)[O-])cc1[N+](=O)[O-])Oc1cc(OCC(=O)N(c3ccccc3)c3ccccc3)cc(c1)Oc1cc(c([N+](=O)[O-])cc1[N+](=O)[O-])O2)N(c1ccccc1)c1ccccc1	12.5 (≈ 12.5 µM)	25 (≈ 25 µM)	12.5 (≈ 12.5 µM)	1.75 (≈ 1.75 µM)	1 (≈ 1 µM)	1.75 (≈ 1.75 µM)	3.12 (≈ 3.13 µM)	38.3	82.2	> 100
O=C(Oc1cc2cc(c1)Oc1cc(c([N+](=O)[O-])cc1[N+](=O)[O-])Oc1cc(OC(=O)c3cccc4ccccc34)cc(c1)Oc1cc(c([N+](=O)[O-])cc1[N+](=O)[O-])O2)c1cccc2ccccc12	25 (≈ 28.1 µM)	12.5 (≈ 14.1 µM)	12.5 (≈ 14.1 µM)	1.75 (≈ 1.97 µM)	1.75 (≈ 1.97 µM)	50 (≈ 56.3 µM)	12.5 (≈ 14.1 µM)	16.3	32.6	> 100
O=[N+]([O-])c1cc([N+](=O)[O-])c2cc1Oc1cc(cc(OS(=O)(=O)c3cccc4cccnc34)c1)Oc1cc(c([N+](=O)[O-])cc1[N+](=O)[O-])Oc1cc(cc(OS(=O)(=O)c3cccc4cccnc34)c1)O2	25 (≈ 26 µM)	50 (≈ 51.9 µM)	25 (≈ 26 µM)	6.25 (≈ 6.49 µM)	12.5 (≈ 13 µM)	3.12 (≈ 3.25 µM)	12.5 (≈ 13 µM)	12.8	25.6	> 100
O=C(COc1cc2cc(c1)Oc1cc(c([N+](=O)[O-])cc1[N+](=O)[O-])Oc1cc(OCC(=O)Nc3nc4ccc([N+](=O)[O-])cc4s3)cc(c1)Oc1cc(c([N+](=O)[O-])cc1[N+](=O)[O-])O2)Nc1nc2ccc([N+](=O)[O-])cc2s1	50 (≈ 47.6 µM)	42.9 (≈ 40.8 µM)	50 (≈ 47.6 µM)	12.5 (≈ 11.9 µM)	50 (≈ 47.6 µM)	1.75 (≈ 1.67 µM)	1.75 (≈ 1.67 µM)	41.3	93.2	> 100
CC1(C)S[C@@H]2[C@H](NC(=O)[C@H](N)c3ccccc3)C(=O)N2[C@H]1C(=O)O [AMPICILLIN]	–	–	–	1 (≈ 2.86 µM)	–	2 (≈ 5.72 µM)	10 (≈ 28.6 µM)	–	–	–
COc1cccc2c1C(=O)c1c(O)c3c(c(O)c1C2=O)C[C@@](O)(C(=O)CO)C[C@@H]3O[C@H]1C[C@H](N)[C@H](O)[C@H](C)O1 [DOXORUBICIN HYDROCHLORIDE]	–	–	–	–	–	–	–	< 0.1	< 0.1	95.5
Cc1cccc2sc(NC(=O)COc3cc4cc(c3)Oc3cc(c([N+](=O)[O-])cc3[N+](=O)[O-])Oc3cc(OCC(=O)Nc5nc6c(C)cccc6s5)cc(c3)Oc3cc(c([N+](=O)[O-])cc3[N+](=O)[O-])O4)nc12	25 (≈ 25.3 µM)	25 (≈ 25.3 µM)	12.5 (≈ 12.6 µM)	25 (≈ 25.3 µM)	12.5 (≈ 12.6 µM)	3.12 (≈ 3.16 µM)	6.25 (≈ 6.32 µM)	7.7	13.4	> 100
O=C(COc1cc2cc(c1)Oc1cc(c([N+](=O)[O-])cc1[N+](=O)[O-])Oc1cc(OCC(=O)Nc3nc4ccccc4s3)cc(c1)Oc1cc(c([N+](=O)[O-])cc1[N+](=O)[O-])O2)Nc1nc2ccccc2s1	50 (≈ 52 µM)	50 (≈ 52 µM)	12.5 (≈ 13 µM)	6.25 (≈ 6.5 µM)	6.25 (≈ 6.5 µM)	1 (≈ 1.04 µM)	50 (≈ 52 µM)	10.3	19.4	> 100
O=C(COc1cc2cc(c1)Oc1cc(c([N+](=O)[O-])cc1[N+](=O)[O-])Oc1cc(OCC(=O)Nc3nc4ccc(Br)cc4s3)cc(c1)Oc1cc(c([N+](=O)[O-])cc1[N+](=O)[O-])O2)Nc1nc2ccc(Br)cc2s1	25 (≈ 22.3 µM)	25 (≈ 22.3 µM)	25 (≈ 22.3 µM)	1 (≈ 0.894 µM)	1.75 (≈ 1.56 µM)	1 (≈ 0.894 µM)	25 (≈ 22.3 µM)	2.1	4.6	> 100
O=C(COc1cc2cc(c1)Oc1cc(c([N+](=O)[O-])cc1[N+](=O)[O-])Oc1cc(OCC(=O)Nc3cccc4c3C(=O)c3ccccc3C4=O)cc(c1)Oc1cc(c([N+](=O)[O-])cc1[N+](=O)[O-])O2)Nc1cccc2c1C(=O)c1ccccc1C2=O	50 (≈ 45.2 µM)	50 (≈ 45.2 µM)	25 (≈ 22.6 µM)	25 (≈ 22.6 µM)	1.75 (≈ 1.58 µM)	50 (≈ 45.2 µM)	1 (≈ 0.903 µM)	53.4	> 100	> 100
O=C(COc1cc2cc(c1)Oc1cc(c([N+](=O)[O-])cc1[N+](=O)[O-])Oc1cc(OCC(=O)Nc3nc4ccc(Cl)cc4s3)cc(c1)Oc1cc(c([N+](=O)[O-])cc1[N+](=O)[O-])O2)Nc1nc2ccc(Cl)cc2s1	50 (≈ 48.6 µM)	50 (≈ 48.6 µM)	50 (≈ 48.6 µM)	6.25 (≈ 6.07 µM)	6.25 (≈ 6.07 µM)	12.5 (≈ 12.1 µM)	3.12 (≈ 3.03 µM)	13.7	28.6	> 100
CCn1cc(C(=O)O)c(=O)c2cc(F)c(N3CCNCC3)cc21 [NORFLOXACIN]	–	–	–	1 (≈ 3.13 µM)	1 (≈ 3.13 µM)	1 (≈ 3.13 µM)	1 (≈ 3.13 µM)	–	–	–
COc1ccc2nc(NC(=O)COc3cc4cc(c3)Oc3cc(c([N+](=O)[O-])cc3[N+](=O)[O-])Oc3cc(OCC(=O)Nc5nc6ccc(OC)cc6s5)cc(c3)Oc3cc(c([N+](=O)[O-])cc3[N+](=O)[O-])O4)sc2c1	50 (≈ 49 µM)	25 (≈ 24.5 µM)	12.5 (≈ 12.2 µM)	50 (≈ 49 µM)	25 (≈ 24.5 µM)	12.5 (≈ 12.2 µM)	3.12 (≈ 3.06 µM)	20.1	39.4	> 100
GENTAMICIN	–	–	–	0.005	1	0.025	0.05	–	–	–
